These results are taken from patent US20110071100A1, “SULFOBETAINES FOR CANCER, OBESITY, MACULAR DEGENERATION, NEURODEGENERATIVE DISEASES” (TILTAN PHARMA LTD., priority 2008, published 2011).

The subject of this assay is malignant (mammary carcinoma) tumor (EMT6/CTX). The assay can be described thus: Tumor growth of malignant (mammary carcinoma) tumor (EMT6/CTX) in a mouse experimental model. As to conditions: for effect on tumor growth, agent alone: i.p.; for inhibition of tumor growth, alone and in combination with Hamsa treatment (summary of experiments 1-4): SB-18 and CHAPS 40 mg/kg, SB-12 2.5 and 40 mg/kg. In kind it is in vivo, CB6F1 male mice. Here is the method: In order to determine the effect of SB-18, CHAPS, SB-12, SB-16-4 and SB-18-4 each alone and each in combination with 4 other agents (“Hamsa treatment”), on tumor growth of a malignant (mammary carcinoma) tumor (EMT6/CTX) in a mouse experimental model, six (6) experiments were carried out as described below:
CB6F1 male mice (a cross between Balbc and C57bl) at age of 7-8 weeks were anesthetized with Ketamine:Xelazine in a 0.85:0.15 ratio respectively, and diluted 1:1 with double distilled water (DDW) and injected i.m. in volume of 50 uL.
100 uL of EMT6/CTX cells 3.6×10^5 cells/mouse were injected subcutaneously (s.c.) to the anesthetized mice, after shaving their back (to enable accurate measurement of tumor-volume). The mice were divided into four groups, as outlined below, 6-8 animals in each group. The mice were marked with Picric acid on head (H), tail (T), head and tail (H&T), right leg (RL), left leg (LL), right and left legs (SY), back and blank and were individually monitored.
“Hamsa treatment” as used herein consists of the following active ingredients in the following concentrations: • Cimetidine 60 mg/kg (Farchemia s.r.l. Italy). • Diclofenac 30 mg/kg (Unique Pharma India). • Cyclophosphamide (CTX) 60 mg/kg (Hisun China) • Sulfasalazine (SSZ) (Farchemia s.r.l. Italy)—50 mg/kg on days of cytotoxic treatment, i.e. on days when cyclophosphamide and diclofenac are administered; 150 mg/kg on days of non-cytotoxic treatment, i.e. on days when no cyclophosphamide and disclofenac are administered.
The preparation and administration protocol of the Hamsa treatment is outlined in Table 1:
SB-12, CHAPS and SB-18 (HOPAX Chem. Mfg. Ltd Taiwan) were prepared separately as aqueous solutions, then mixed 1:1 with Vehicle or the cytotoxic or non-cytotoxic stage of the Hamsa treatment and twice the volume was injected i.p. Due to its lower solubility, SB-18 was dissolved by mild warming (˜45° C.) of its aqueous solution in the presence of 2% Solutol HS-15 (BASF-Germany). In groups that received SB-12, CHAPS or SB-18, this agent was injected daily. […]
SB-16-4 was first dissolved in DDW containing 2% Solutol HS-15 with heating to 40° C. to 8 mg/mL concentration. The stock solution was diluted with non-cytotoxic and cytotoxic treatments in 1:1 ratio.
SB-18-4 was first dissolved in DDW containing 4% Solutol HS-15 with heating to 40° C. to 8 mg/mL concentration. The stock solution was diluted with non-cytotoxic and cytotoxic treatments in 1:1 ratio
• 1. 7 mice received vehicle (DDW+2% Solutol—BASF, Germany) • 2. 8 mice received Hamsa treatment • 3. 8 mice received Hamsa treatment in combination with SB-18 (40 mg/kg). • 4. 6 mice received SB-18 in vehicle (40 mg/kg)
• 1. 7 mice received vehicle (DDW+2% Solutol—BASF, Germany) • 2. 8 mice received Hamsa treatment • 3. 7 mice received Hamsa treatment in combination with CHAPS (40 mg/kg). • 4. 7 mice received CHAPS in vehicle (40 mg/kg)
• 1. 7 mice received vehicle (DDW+2% Solutol—BASF, Germany) • 2. 6 mice received Hamsa treatment. • 3. 7 mice received Hamsa treatment with SB-12 (2.5 mg/kg). • 4. 7 mice received SB-12 in vehicle (2.5 mg/kg)
• 1. 7 mice received vehicle (DDW+2% Solutol—BASF, Germany) • 2. 7 mice received Hamsa treatment • 3. 7 mice received Hamsa treatment with SB-12 (40 mg/kg).
• 1. 6 mice received vehicle (DDW+2% Solutol—BASF, Germany) • 2. 6 mice received Hamsa treatment • 3. 7 mice received Hamsa treatment in combination with SB-16-4 (40 mg/kg). • 4. 5 mice received SB-16-4 in vehicle (40 mg/kg)
• 1. 7 mice received vehicle (DDW+2% Solutol—BASF, Germany) • 2. 8 mice received Hamsa treatment • 3. 7 mice received Hamsa treatment in combination with SB-18-4 (40 mg/kg). • 4. 7 mice received SB-18-4 in vehicle (40 mg/kg)
Five (5) or six (6) days after inoculation, when the tumor is already palpable, the treatment was initiated by intraperitoneally (i.p.) injection of the indicated treatment, in a volume of 250 uL, once a day, every day, 6 days a week. […]

Setting [1] is: 40 mg/kg i.p. daily + Hamsa treatment (cimetidine, sulfasalazine, diclofenac, cyclophosphamide).
[2] abbreviates: 40 mg/kg in vehicle, daily, s.c. EMT6/CTX tumor, tumor volume by caliper.

`CC(CCC(=O)NCCC[N+](C)(C)CCCS(=O)(=O)[O-])C1CCC2C3C(O)CC4CC(O)CCC4(C)C3CC(O)C12C` (centres unmarked) [CHAPS, 3-[3-(Cholamidopropyl)dimethylamonio]-1-propanesulfonate]: the “inhibition of tumor growth, alone and in combination with Hamsa treatment (summary of experiments 1-4)” value (from here on “inhibition of tumor growth”) was “inhibited tumor growth”. Moreover, under setting [1], the “effect on tumor growth in combination with Hamsa treatment” value (“effect on tumor growth in combination” for short) is on record as “has a synergistic effect”. Moreover, the “effect on tumor growth, agent alone” value under setting [2] is listed as “has an anti-tumor effect”.
Turning to `CCCCCCCCCCCC[N+](C)(C)CCCS(=O)(=O)[O-]` [SB-12, N-Dodecyl-N,N-Dimethyl-3-Ammonio-1-Propane Sulfonate, reference compound], the “inhibition of tumor growth” value is “did not”. The “effect on tumor growth in combination” value (2.5 mg/kg i.p. daily + Hamsa treatment (low dose)) is “slightly compromises the anti-tumor effect of the Hamsa treatment”. For the same molecule, for the setting “2.5 mg/kg in vehicle, daily (low dose)”, the “effect on tumor growth, agent alone” value is on record as “does not inhibit tumor growth, but rather enhances tumor-growth”. Moreover, the “effect on tumor growth in combination” value under setting [1] is “compromises the anti-tumor effect of Hamsa treatment”.
On to `CCCCCCCCCCCCCCCC[N+](C)(C)CCCCS(=O)(=O)[O-]` [SB-16-4, N,N-Dimethylhexadecyl-ammonium-1-(4-butylsulfonate)], for which, under setting [1], the “effect on tumor growth in combination” value is recorded as “has a synergistic effect”. For the same molecule, under setting [2], the “effect on tumor growth, agent alone” value is on record as “has an anti-tumor effect”.
With `CCCCCCCCCCCCCCCCCC[N+](C)(C)CCCS(=O)(=O)[O-]` [SB-18, N-Octadecyl-N,N-Dimethyl-3-Ammonio-1-Propane Sulfonate], the “inhibition of tumor growth” value is listed as “inhibited tumor growth”. Further, under setting [1], the “effect on tumor growth in combination” value is given as “has a synergistic effect”. Besides, under setting [2], the “effect on tumor growth, agent alone” value was “has an anti-tumor effect”.
For `CCCCCCCCCCCCCCCCCC[N+](C)(C)CCCCS(=O)(=O)[O-]` [SB-18-4, N,N-Dimethyloctadecyl-ammonium-1-(4-butylsulfonate)], under setting [1], the “effect on tumor growth in combination” value is “has a synergistic effect”. For the same molecule, the “effect on tumor growth, agent alone” value under setting [2] is on record as “has an anti-tumor effect”.
